Source: patent US20180125816A1, “SAROGLITAZAR MAGNESIUM FOR THE TREATMENT OF CHYLOMICRONEMIA SYNDROME” (CADILA HEALTHCARE LIMITED, priority 2015, published 2018)

What was measured:
Zucker fa/fa rats [1] = assay: Fatty tolerance test with 13C-palmitate/corn oil after 14 days repeated dosing: hyper-chylomicronemia and chylomicron dynamics; format: in vivo, rat; conditions: for 13C Palmitate / Palmitate total: adipose tissue
Experimental: In this study, the effect of Compound (1) on hyper-chylomicronemia and chylomicron dynamics in Zucker fa/fa rats after 14 days repeated dose administration was evaluated.
Zucker (fa/fa) fatty rat of 7-8 weeks of age were purchased from Charles River Laboratory and single-housed under a pathogen free environment with constant room temperature (20-22° C.) and relative humidity (40-50%) and a 6:00 pm-6:00 am dark-light cycle. Rats were provided with free access to food (Lab Diet 5L0D, an irradiated regular rodent diet containing 23% of protein and 4.5% of fat) and water. Initial body weight and body composition (using a NMR analyzer) were measured 6 days post-arrival. The rats were then randomly divided into four dosing groups based BW and fat mass as below—
Dosing was begun at 9-10 weeks of age, once daily (8-10 am) by oral gavage for 14 days. On the day-14 of dosing, a final body composition (after dosing) was measured. On day-15, all animals were given a fatty tolerance test (FTT) after being fasted overnight (15-16 hours), followed by blood and tissue collection.
Fatty Tolerance Test Procedure (FTT): • 1. Following an overnight fast, rats were orally gavaged with a mixture of ^13C-Palmitic Acid (1 and corn oil (1 g of^13C-P dissolved in 5 ml of corn oil) at 5 ml/kg·bw. • 2. Blood samples were collected via tail vein bleeding using 3×300 ul EDTA tubes at the following time points:
0 hour (initial), 1 hour, 2 hour, 3 hour, 4 hour, 5 hour, 6 hour, 8 hour
After the 8 hour bleeding, rats were knocked down in a drop jar using isoflurane. Once sedated, the rats were hooked up to a Midmark Matrx Anesthesia isoflurane machine that dispensed isoflurane vapor at […] with an oxygen flow rate of 1 L/min. Organs and tissues were dissected and frozen immediately in liquid nitrogen and stored at −80° C. LCMS and GCMS were used to assess the incorporation of ^13C lipids into plasma and tissue lipids (n=5 for tissue metabolomics studies).

Zucker fa/fa rats [2] = assay: Severe hypertriglyceridemia induced by Triton WR-1339 (inhibition of LPL) in Zucker fa/fa rats, serum triglycerides; format: in vivo, rat; conditions: for % Change in AUC-TG vs Vehicle Control: AUC 0-48 hr; for reduction in serum triglycerides (TG): 0-hr time point, after repeat dose treatment
Experimental: The obese Zucker (fatty) rat is one of the oldest models of NIDDM, resembling human type II diabetes, i.e. diabetes associated with obesity. It is characterized by hyperphagia and associated with mild hyperglycaemia, insulin resistance, mild glucose intolerance, hyperlipidaemia specially hypertriglyceridemia. When the non-ionic detergent Triton WR-1339 is injected into Zucker fa/fa rats, there is a progressive accumulation of triacylglycerols in the plasma/serum (Friedman & Byers, 1953; Otway & Robinson, 1967). […] So the nonionic detergent, Triton WR-1339 (Triton), has commonly been used to inhibit LPL for this purpose to produce the condition of severe hypertriglyceridemia similar to familial chylomicronemia syndrome and Type V hyperlipoproteinemia.
In this study 20 male and 14 female Zucker fa/fa rats of 6-10 weeks of age were selected for the and on day-0, body weight of animals recorded and blood samples (approximately 80 μl to 90 μl) was collected via retro orbital route using isoflurane as inhalation anaesthesia, serum separated and serum triglyceride estimated and 24 animals were selected and grouped on the basis of serum triglyceride level as primary parameter as below
From hyphen or day-1 to Day-14, compounds were formulated in 5% PEG+5% Tween 80+90% (0.5%) Na-CMC in such, a way that the final volume of administration was 2 ml/kg of body wt, and animals were dosed orally once daily as per grouping details.
On day-14 blood samples were collected after 1 hour of dosing, serum separated and serum triglycerides (TG) was estimated. Animals were being kept on 24 hours fasting after completion of day-14 activities. On day-15, after 24 hours of fasting, body wt. of all animals was recorded. Then formulations of treatment items were prepared in vehicle and Triton WR-1339 prepared in 0.9% saline for intraperitoneal injection at dose of 250 mg/kg per 5 ml. Basal blood samples collected and animals were administered orally with respective treatment and immediately injected intraperitoneally with Triton WR-1339. Blood samples (approx, 1 ml per sample) were also collected at 6 hr, 24 hours and 48 hours after triton administration and serum triglycerides levels were estimated using Cobas C 311 clinical chemistry autoanalyser from Roche Diagnostics using commercial diagnostic kits.
% change at 6-hr, 24-hr and 48-hr for TG vs Vehicle Control was calculated using MS using MS Excel. The area under curve for TG, AUC-TG (0-48), was calculated using Graph Pad® software.

CCO[C@@H](Cc1ccc(OCCn2c(C)ccc2-c2ccc(SC)cc2)cc1)C(=O)O [Compound (1), Saroglitazar Magnesium]
plasma triglyceride (TG) in FTT (in words) (Zucker fa/fa rats [1]; 0 and 2 hour post corn oil treatment): significantly reduced plasma triglyceride (TG) | % Change in 13C Palmitate uptake in adipose tissue Vs Vehicle Control (Zucker fa/fa rats [1]; 0.4 mg/kg p.o.): 86% | Plasma TG in FTT (Zucker fa/fa rats [1]; 0.4 mg/kg p.o. 14 days, 0 min): 330.5 ± 39.2 mg/dL | Plasma TG in FTT (Zucker fa/fa rats [1]; 0.4 mg/kg p.o. 14 days, 120 min): 389.2 ± 21.8 mg/dL | 13C Palmitate (Zucker fa/fa rats [1]; 0.4 mg/kg p.o.): 6.20 ± 0.89 Nanomole/mg protein | Palmitate total (Zucker fa/fa rats [1]; 0.4 mg/kg p.o.): 7.14 ± 0.30 micromole/mg protein | % Change in 13C Palmitate uptake in adipose tissue Vs Vehicle Control (Zucker fa/fa rats [1]; 4 mg/kg p.o.): 247% | Plasma TG in FTT (Zucker fa/fa rats [1]; 4 mg/kg p.o. 14 days, 0 min): 84.7 ± 9.3 mg/dL | Plasma TG in FTT (Zucker fa/fa rats [1]; 4 mg/kg p.o. 14 days, 120 min): 171.3 ± 28.2 mg/dL | 13C Palmitate (Zucker fa/fa rats [1]; 4 mg/kg p.o.): 11.57 ± 0.73 Nanomole/mg protein | Palmitate total (Zucker fa/fa rats [1]; 4 mg/kg p.o.): 6.60 ± 0.29 micromole/mg protein | fasting and postprandial TG levels (in words) (Zucker fa/fa rats [1]; conclusion of the study): significantly reduces fasting and postprandial TG levels | increase in accumulation of M+16 palmitate in adipose tissue (Zucker fa/fa rats [1]; high dose (4 mg/kg)): 247% | appearance of M+16 TG species TG (52:3) and TG (52:4) in plasma (in words) (Zucker fa/fa rats [1]; low (0.4 mg/kg) and high (4 mg/kg) dose): significantly attenuated the appearance of M+16 TG | gastrocnemius M+16 palmitate labeling (in words) (Zucker fa/fa rats [1]; low and high dose (0.4 and 4 mg/kg)): decreased gastrocnemius M+16 palmitate labeling | increase in accumulation of M+16 palmitate in adipose tissue (Zucker fa/fa rats [1]; low dose (0.4 mg/kg)): 86% | reduction in AUC-TG Vs Vehicle control group (Zucker fa/fa rats [2]; 1 mg/kg): 48% | AUC-TG (0-48 hr.) (Zucker fa/fa rats [2]; 1 mg/kg p.o. once daily): 54241.5 ± 11182.3 mg·h/dL | Serum Triglycerides after Triton WR-1339 administration (Zucker fa/fa rats [2]; 1 mg/kg p.o. once daily, 0 hr): 188.3 ± 15.6 mg/dL | Serum Triglycerides after Triton WR-1339 administration (Zucker fa/fa rats [2]; 1 mg/kg p.o. once daily, 6 hr): 438.5 ± 52.7 mg/dL | Serum Triglycerides after Triton WR-1339 administration (Zucker fa/fa rats [2]; 1 mg/kg p.o. once daily, 24 hr): 1797.2 ± 331.3 mg/dL | Serum Triglycerides after Triton WR-1339 administration (Zucker fa/fa rats [2]; 1 mg/kg p.o. once daily, 48 hr): 889.5 ± 353.9 mg/dL | % Change in TG Vs Vehicle Control (Zucker fa/fa rats [2]; 1 mg/kg p.o., 0 hr after Triton WR-1339): −63.7 ± 3.0% | % Change in TG Vs Vehicle Control (Zucker fa/fa rats [2]; 1 mg/kg p.o., 6 hr after Triton WR-1339): −43.6 ± 6.8% | % Change in TG Vs Vehicle Control (Zucker fa/fa rats [2]; 1 mg/kg p.o., 24 hr after Triton WR-1339): −44.7 ± 10.2% | % Change in TG Vs Vehicle Control (Zucker fa/fa rats [2]; 1 mg/kg p.o., 48 hr after Triton WR-1339): −59.1 ± 16.3% | % Change in AUC-TG vs Vehicle Control (Zucker fa/fa rats [2]; 1 mg/kg p.o.): −48.4 ± 10.6% | reduction in serum triglycerides (TG) (Zucker fa/fa rats [2]; 1 mg/kg): 64% | reduction in AUC-TG Vs Vehicle control group (Zucker fa/fa rats [2]; 10 mg/kg): 63% | AUC-TG (0-48 hr.) (Zucker fa/fa rats [2]; 10 mg/kg p.o. once daily): 39050.3 ± 6922.7 mg·h/dL | Serum Triglycerides after Triton WR-1339 administration (Zucker fa/fa rats [2]; 10 mg/kg p.o. once daily, 0 hr): 93.2 ± 7.9 mg/dL | Serum Triglycerides after Triton WR-1339 administration (Zucker fa/fa rats [2]; 10 mg/kg p.o. once daily, 6 hr): 328.9 ± 111.9 mg/dL | Serum Triglycerides after Triton WR-1339 administration (Zucker fa/fa rats [2]; 10 mg/kg p.o. once daily, 24 hr): 1463.8 ± 265.3 mg/dL | Serum Triglycerides after Triton WR-1339 administration (Zucker fa/fa rats [2]; 10 mg/kg p.o. once daily, 48 hr): 340.4 ± 151.7 mg/dL | % Change in TG Vs Vehicle Control (Zucker fa/fa rats [2]; 10 mg/kg p.o., 0 hr after Triton WR-1339): −82.0 ± 1.5% | % Change in TG Vs Vehicle Control (Zucker fa/fa rats [2]; 10 mg/kg p.o., 6 hr after Triton WR-1339): −57.7 ± 14.4% | % Change in TG Vs Vehicle Control (Zucker fa/fa rats [2]; 10 mg/kg p.o., 48 hr after Triton WR-1339): −84.3 ± 7.0% | % Change in AUC-TG vs Vehicle Control (Zucker fa/fa rats [2]; 10 mg/kg p.o.): −62.9 ± 6.6% | reduction in serum triglycerides (TG) (Zucker fa/fa rats [2]; 10 mg/kg): 82% | lowering of TG levels (in words) (Zucker fa/fa rats [2]; 1 and 10 mg/kg, all time points after Triton WR-1339): dose dependent lowering of TG levels at all-time points | blunting an increase in serum triglycerides (in words) (Zucker fa/fa rats [2]; compared to fenofibrate): significantly effective in blunting an increase in serum triglycerides

CC(C)OC(=O)C(C)(C)Oc1ccc(C(=O)c2ccc(Cl)cc2)cc1 [Fenofibrate, reference compound]
% Change in 13C Palmitate uptake in adipose tissue Vs Vehicle Control (Zucker fa/fa rats [1]; 150 mg/kg p.o.): −14% | Plasma TG in FTT (Zucker fa/fa rats [1]; 150 mg/kg p.o. 14 days, 120 min): 502.2 ± 8.1 mg/dL | 13C Palmitate (Zucker fa/fa rats [1]; 150 mg/kg p.o.): 2.88 ± 0.57 Nanomole/mg protein | Palmitate total (Zucker fa/fa rats [1]; 150 mg/kg p.o.): 6.90 ± 0.24 micromole/mg protein | reduction in AUC-TG Vs Vehicle control group (Zucker fa/fa rats [2]; 65 mg/kg): 11% | AUC-TG (0-48 hr.) (Zucker fa/fa rats [2]; 65 mg/kg p.o. once daily): 93412.8 ± 12023.5 mg·h/dL | Serum Triglycerides after Triton WR-1339 administration (Zucker fa/fa rats [2]; 65 mg/kg p.o. once daily, 0 hr): 324.9 ± 45.3 mg/dL | Serum Triglycerides after Triton WR-1339 administration (Zucker fa/fa rats [2]; 65 mg/kg p.o. once daily, 6 hr): 1048.1 ± 147.4 mg/dL | Serum Triglycerides after Triton WR-1339 administration (Zucker fa/fa rats [2]; 65 mg/kg p.o. once daily, 24 hr): 2871.5 ± 357.4 mg/dL | Serum Triglycerides after Triton WR-1339 administration (Zucker fa/fa rats [2]; 65 mg/kg p.o. once daily, 48 hr): 1630.0 ± 329.8 mg/dL | % Change in TG Vs Vehicle Control (Zucker fa/fa rats [2]; 65 mg/kg p.o., 0 hr after Triton WR-1339): −37.4 ± 8.7% | % Change in TG Vs Vehicle Control (Zucker fa/fa rats [2]; 65 mg/kg p.o., 6 hr after Triton WR-1339): 34.9 ± 19.0% | % Change in TG Vs Vehicle Control (Zucker fa/fa rats [2]; 65 mg/kg p.o., 48 hr after Triton WR-1339): −25.0 ± 15.2%
